Source: patent publication US20110294698A1, “PROCESS FOR IDENTIFYING DRUGS FOR TREATING GASTROESOPHAGEAL REFLUX” (Temple University of the Commonwealth System of Higher …, priority 2008, published 2011)
Entries after “also recorded” stand apart in the source; their conditions may differ. Where two headings read alike, the source gives them in different places.

Experiments:
human clasp fibers [1] = experiment: bethanechol induced contraction of muscle strips, with or without antagonist (Schild analysis); type: cell-based
human sling fibers [2] = experiment: as above; type: cell-based
human LEC fibers [3] = experiment: as above; type: cell-based
human MEC fibers [4] = experiment: as above; type: cell-based
human MEL fibers [5] = experiment: as above; type: cell-based
M3 receptor = M3 receptor (Homo sapiens, UniProt P20309); settings: cited from earlier work
M3 receptor, sequence (P20309 whole entry): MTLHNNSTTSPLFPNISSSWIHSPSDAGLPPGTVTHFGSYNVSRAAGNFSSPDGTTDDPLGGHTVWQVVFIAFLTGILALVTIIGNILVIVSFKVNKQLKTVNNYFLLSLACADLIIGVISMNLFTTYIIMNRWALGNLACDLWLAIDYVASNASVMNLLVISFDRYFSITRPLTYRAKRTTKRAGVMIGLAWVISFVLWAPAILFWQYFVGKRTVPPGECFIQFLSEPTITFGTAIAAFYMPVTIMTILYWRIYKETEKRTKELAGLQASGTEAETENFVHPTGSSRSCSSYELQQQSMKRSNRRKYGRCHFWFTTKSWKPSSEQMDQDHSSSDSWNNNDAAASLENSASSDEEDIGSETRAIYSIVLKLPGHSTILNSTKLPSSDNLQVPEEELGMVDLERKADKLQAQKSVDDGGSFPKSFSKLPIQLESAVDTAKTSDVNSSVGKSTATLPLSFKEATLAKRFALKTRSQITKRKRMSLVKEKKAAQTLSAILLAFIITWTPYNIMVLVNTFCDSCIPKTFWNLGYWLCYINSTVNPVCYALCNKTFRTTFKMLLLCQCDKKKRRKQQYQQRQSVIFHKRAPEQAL

M2 receptor = biological target: T1, M2 receptor (Homo sapiens, UniProt P08172); settings: published value; cited from earlier work
T1 sequence (P08172 1-466): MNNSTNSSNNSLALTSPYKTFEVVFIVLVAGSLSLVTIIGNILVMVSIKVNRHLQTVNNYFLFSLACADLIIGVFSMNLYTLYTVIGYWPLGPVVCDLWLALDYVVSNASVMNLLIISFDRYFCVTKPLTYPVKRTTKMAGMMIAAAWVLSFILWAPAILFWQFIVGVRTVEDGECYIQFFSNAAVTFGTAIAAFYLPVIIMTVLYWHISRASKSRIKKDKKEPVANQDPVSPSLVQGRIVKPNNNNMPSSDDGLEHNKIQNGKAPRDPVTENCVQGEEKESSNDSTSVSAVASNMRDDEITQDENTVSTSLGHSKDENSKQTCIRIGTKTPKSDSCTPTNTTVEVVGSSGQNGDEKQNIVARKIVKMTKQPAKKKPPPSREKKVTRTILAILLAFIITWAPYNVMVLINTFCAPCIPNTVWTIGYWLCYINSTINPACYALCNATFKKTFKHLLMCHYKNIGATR

human clasp fibers [6] = experiment: carbachol induced contraction and relaxation of muscle strips, with potential inhibitors of relaxation; type: cell-based; settings: for inhibition of carbachol induced relaxation: mecamylamine 10 μM, hexamethonium 100 μM, L-NAME 50 μM
human sling fibers [7] = experiment: as above; type: cell-based; settings: for inhibition of carbachol induced relaxation: mecamylamine 10 μM, hexamethonium 100 μM
human LEC fibers [8] = experiment: as above; type: cell-based; settings: for inhibition of carbachol induced relaxation: mecamylamine 10 μM, hexamethonium 100 μM, L-NAME 50 μM
human MEC fibers [9] = experiment: carbachol cumulative concentration response of muscle strips; type: cell-based
Description: (§1) Beginning at the cardiac notch, the sling fiber complex was separated from the underlying submucosa by sharp dissection and this tissue plane was followed completely around the lesser curvature thus separating the clasp fibers from underlying submucosa. The clasp fiber complex was removed from the sling fiber complex by sharp dissection and cut into 10-12 smooth muscle strips approximately 3×3×8 mm with the long axis parallel to the direction of the muscle fibers. Similar muscle strips were cut from the middle of the sling fiber complex such that these strips were derived from the sling fibers in the cardiac notch. These smooth muscle strips were suspended in 10 ml muscle baths between platinum electrodes in Tyrode's solution continuously bubbled with 95% O2/5% CO2 and maintained at 37° C. The muscle strips were stretched to approximately 150% of their slack length which produced approximately 1 gram of basal tension and were then allowed to accommodate to the muscle bath for at least 60 minutes prior to investigation of contractile response.
(§2) Representative traces of the contractile response to 120 mM KCl in isotonic Tyrode's solution followed by a wash and 60 minute re-equilibration period then a cumulative concentration response curve to the selective muscarinic receptor agonist bethanechol (left) or the muscarinic and nicotinic agonist carbachol (right) is shown in FIG. 11. […]

human MEL fibers [10] = experiment: as above; type: cell-based
Description: as §1, §2

human clasp fibers [11] = experiment: nicotine or choline induced relaxation of bethanechol pre-contracted muscle strips; type: cell-based
human sling fibers [12] = experiment: as above; type: cell-based
human LEC fibers [13] = experiment: as above; type: cell-based
pig clasp fibers = type: cell-based
[14] = tested on: gastroesophageal junction high-pressure zone; design: species or system human; settings: in vivo, iv
[15] = tested on: gastroesophageal junction high-pressure zone; settings: in vivo; cited from earlier work
[16] = mean ± SEM, read-out: BETH pEC50 (bethanechol potency) (converted)
[17] = Barrett's esophagitis donors vs no GERD history
[18] = cumulative concentration response
[19] = inhibitor 30 min, then carbachol rechallenge, others as in Table 6

CC(C[N+](C)(C)C)OC(N)=O (stereo not drawn) [bethanechol]
BETH MAX (maximal tension) (human clasp fibers [1]; mean ± SEM): 1.20 ± 0.17 (n = 14) b d | EC50 (human clasp fibers [1]; [16]): 1.58 µM | BETH MAX (maximal tension) (human sling fibers [2]; mean ± SEM): 2.18 ± 0.24 (n = 37) c d e | EC50 (human sling fibers [2]; [16]): 10.5 µM | BETH MAX (maximal tension) (human LEC fibers [3]; mean ± SEM): 0.92 ± 0.09 (n = 29) | EC50 (human LEC fibers [3]; [16]): 6.46 µM | BETH MAX (maximal tension) (human MEC fibers [4]; mean ± SEM): 0.79 ± 0.07 (n = 24) e | EC50 (human MEC fibers [4]; [16]): 45.7 µM | BETH MAX (maximal tension) (human MEL fibers [5]; mean ± SEM): 1.37 ± 0.21 (n = 10) | EC50 (human MEL fibers [5]; [16]): 15.8 µM | KA (agonist dissociation constant) for M3 (M3 receptor; published value): 110 µM | KA (agonist dissociation constant) for M2 (M2 receptor): 170 µM

C[N+](C)(C)CCOC(N)=O [carbachol]
maximal contractile response to carbachol, definite GERD (human clasp fibers [6]; [17]): decreased | carbachol induced relaxations, probable and definite GERD (human clasp fibers [6]; carbachol higher than 100 μM): decreased | concentration above which abrupt relaxations were produced (human clasp fibers [6]; increasing carbachol concentrations (Example 9)): higher than 30 uM | relaxation response to high carbachol concentration as a percentage of the maximal contractile response (human clasp fibers [6]; mean±sem): 131±6% | carbachol-induced relaxations with high concentrations of carbachol, donors with GERD compared to non-GERD controls (human clasp fibers [6]; p<0.05): significantly lower | maximal carbachol induced contraction, donors with GERD compared to non-GERD donors (human clasp fibers [6]; p<0.05): significantly lower | carbachol induced relaxation, GERD compared to non-GERD controls (human sling fibers [7]): no difference | carbachol induced relaxations, definite GERD (human sling fibers [7]; carbachol higher than 100 μM): greater | carbachol concentration at which relaxation response is observed (human sling fibers [7]; [18]): ≥ 300 µM | relaxation response to high carbachol concentration as a percentage of the maximal contractile response (human sling fibers [7]; mean±sem): 29±4% | maximal carbachol induced contraction, donors with GERD compared to donors without GERD (human sling fibers [7]; p<0.05): greater | contractility to carbachol, definite and probable GERD (human sling fibers [7]; vs no GERD history): increased | maximal contractile response to carbachol, definite GERD (human LEC fibers [8]; [17]): decreased | carbachol induced relaxations, probable and definite GERD (human LEC fibers [8]; carbachol higher than 100 μM): higher | carbachol concentration at which relaxation response is observed (human LEC fibers [8]; [18]): ≥ 300 µM | relaxation response to high carbachol concentration as a percentage of the maximal contractile response (human LEC fibers [8]; mean±sem): 54±9% | abrupt relaxation response to high carbachol concentrations (human MEC fibers [9]): not observed | abrupt relaxation response to high carbachol concentrations (human MEL fibers [10]): not observed

CC[N+](CC)(CC)CCOc1ccc(/C=C/c2ccccc2)cc1 [MG624]
inhibition of carbachol induced relaxation (human clasp fibers [6]; [19]): blocked

COc1ccccc1CNCCCCCCNCCCCCCCCNCCCCCCNCc1ccccc1OC [methoctramine]
potency (pA2) to inhibit bethanechol induced contraction (human clasp fibers [1]): 6.3±0.2 | potency (pA2) to inhibit bethanechol induced contraction (human sling fibers [2]): 6.8±0.2 | potency (pA2) to inhibit bethanechol induced contraction (human LEC fibers [3]): 6.2±0.2 | potency (pA2) to inhibit bethanechol induced contraction (human MEC fibers [4]): 5.7±0.2 | potency (pA2) to inhibit bethanechol induced contraction (human MEL fibers [5]): 5.6±0.3 | pKB M3 (M3 receptor; published affinity value): 6.6

CCN1C[C@]2(COC(=O)c3ccccc3N3C(=O)C[C@H](C)C3=O)CC[C@H](OC)[C@@]34[C@@H]5C[C@H]6[C@H](OC)[C@@H]5[C@](O)(C[C@@H]6OC)[C@@](O)([C@@H](OC)[C@H]23)[C@@H]14 [methyllycaconitine]
inhibition of carbachol induced relaxation (human clasp fibers [6]; […], others as in Table 6): did not | inhibition of carbachol induced relaxation (human clasp fibers [6]; […], others as in Table 6, listed as methyllycaconotine): ineffective | inhibition of nicotine induced relaxation (human clasp fibers [11]): no inhibitory effect | inhibition of nicotine induced relaxation (human sling fibers [12]): no inhibitory effect | inhibition of nicotine induced relaxation (human LEC fibers [13]): no inhibitory effect

CC(=O)OCC[N+](C)(C)C [acetylcholine]
concentration above which abrupt relaxations were produced (pig clasp fibers; acetylcholine with physostigmine to block cholinesterase): higher than 30 uM

NC1=N[C@H](O)[C@H]2[C@H]3O[C@]4(O)O[C@@H]([C@@H](O)[C@@]2(N1)[C@@H]4O)[C@]3(O)CO [tetrodotoxin]
inhibition of nicotine induced relaxation (human sling fibers [12]): reduced the relaxation but not completely

CN1CCCC1c1cccnc1 (stereo not drawn) [nicotine]
nicotine induced relaxation of bethanechol pre-contracted fibers (human clasp fibers [11]; human clasp fibers): relax | nicotine induced relaxation of bethanechol pre-contracted fibers (human sling fibers [12]; human sling fibers, 30 μM bethanechol, 100 μM nicotine): relax; also recorded: induces a relaxation | nicotine induced relaxation of bethanechol pre-contracted fibers (human LEC fibers [13]; human LEC fibers): relax

CC(=O)O[C@H]1C[C@@H]2CC[C@@H]3[C@H](CC[C@@]4(C)[C@H]3C[C@H]([N+]3(C)CCCCC3)[C@@H]4OC(C)=O)[C@@]2(C)C[C@@H]1[N+]1(C)CCCCC1 [pancuronium]
inhibition of cholinergic agonist induced relaxation (pig clasp fibers; […], 1E−5 molar): inhibited

C[N+](C)(C)CCCCCC[N+](C)(C)C [hexamethonium]
inhibition of carbachol induced relaxation (human sling fibers [7]; […], others as in Table 6): did not | inhibition of carbachol induced relaxation (human sling fibers [7]; […], others as in Table 6, listed as HEX): inhibit | inhibition of carbachol induced relaxation (human LEC fibers [8]; […]): did not

CN1[C@@H]2CC[C@H]1C[C@@H](OC(=O)C(CO)c1ccccc1)C2 (stereo partly drawn) [atropine]
effect on the pressure profile generated by placement of the plications [14]: abolished | effect on the resting sphincteric pressure [15]: dose-dependent partial suppression

C[N+](C)(C)CCCCCCCCCC[N+](C)(C)C [decamethonium]
inhibition of carbachol induced relaxation (human clasp fibers [6]; […], others as in Table 6): inhibited | inhibition of carbachol induced relaxation (human sling fibers [7]; […], others as in Table 6): inhibit

CCCCCCCCCC[n+]1cccc([C@@H]2CCCN2C)c1.[I-] [NDNI]
inhibition of carbachol induced relaxation (human clasp fibers [6]; […], others as in Table 6): blocked

CC(C)NCC(O)COc1cccc2ccccc12 (stereo not drawn) [propranolol]
inhibition of nicotine induced relaxation (human sling fibers [12]; human sling fibers, 30 μM bethanechol then 100 μM nicotine, inhibitor 30 min): inhibited

CNC1(C)C2CCC(C2)C1(C)C (stereo not drawn) [mecamylamine]
inhibition of carbachol induced relaxation (human clasp fibers [6]; [19]): inhibited; also recorded: blocked; also recorded: only partially effective | inhibition of carbachol induced relaxation (human sling fibers [7]; [19]): inhibited | inhibition of carbachol induced relaxation (human sling fibers [7]; inhibitor 30 min, then carbachol rechallenge, others as in Table 6, listed as MEC): inhibit | inhibition of carbachol induced relaxation (human LEC fibers [8]; inhibitor 30 min, then carbachol rechallenge): inhibited | inhibition of nicotine induced relaxation (human clasp fibers [11]; human clasp fibers, 30 μM bethanechol then 1 mM nicotine, MLA 10 nM, MECA 10 μM): significantly inhibited | inhibition of nicotine induced relaxation (human sling fibers [12]; human sling fibers, 30 μM bethanechol then 1 mM nicotine, MLA 10 nM, MECA 10 μM): significantly inhibited | inhibition of nicotine induced relaxation (human LEC fibers [13]; human LEC fibers, 30 μM bethanechol then 1 mM nicotine, MLA 10 nM, MECA 10 μM): significantly inhibited

COc1cc2c3cc1Oc1cc(ccc1O)C[C@@H]1c4c(cc(OC)c(O)c4Oc4ccc(cc4)C[C@@H]3N(C)CC2)CC[N+]1(C)C [tubocurarine]
inhibition of carbachol induced relaxation (human clasp fibers [6]; […], others as in Table 6): inhibited | inhibition of carbachol induced relaxation (human sling fibers [7]; […], others as in Table 6): inhibit

COC(=O)[C@@H](N)CCCNC(=N)N[N+](=O)[O-] [L-NAME]
inhibition of carbachol induced relaxation (human clasp fibers [6]; […], others as in Table 6): inhibited | inhibition of carbachol induced relaxation (human LEC fibers [8]; […]): inhibited | inhibition of nicotine induced relaxation (human sling fibers [12]): inhibited
